Consider five compounds from ChEMBL document CHEMBL1201862, “PubChem BioAssay data set” (2004).

Calls of active or inactive are those of the source.

In experiment [1] the target is Casein kinase I isoform alpha (Homo sapiens, UniProt P48729). Format: functional.
The target in experiment [2] is Macrophage colony-stimulating factor 1 receptor (Homo sapiens, UniProt P07333). Type of experiment: functional.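 Note: value comes from the Navigating the Kinome screening panel, CSF1R member.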
In experiment [3] the target is Mitogen-activated protein kinase 8 (Homo sapiens, UniProt P45983). Type of experiment: functional.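 Note: value comes from one member of a kinome-wide kinase profiling panel.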
The target in experiment [4] is Platelet-derived growth factor receptor alpha (Homo sapiens, UniProt P16234). Kind of experiment: Navigating the Kinome. Panel member name: PDGFRA. Type of experiment: functional.
Experiment [5] addresses Fibroblast growth factor receptor 1 (Homo sapiens, UniProt P11362). Format: functional.
The target of the next experiment is Activated CDC42 kinase 1 (Homo sapiens, UniProt Q07912). Kind of experiment: Navigating the Kinome. Panel member name: ACK1. Type of experiment: functional.
Experiment [6] has as its target Dual specificity protein kinase CLK4 (Homo sapiens, UniProt Q9HAZ1). Type of experiment: functional.
The target in experiment [7] is Vascular endothelial growth factor receptor 2 (Homo sapiens, UniProt P35968). Format: functional.
The target of the next experiment is LIM domain kinase 1 (Homo sapiens, UniProt P53667). Briefly: Navigating the Kinome. Panel member name: LIMK1. Format: functional.
Experiment [8] concerns the target Dual specificity tyrosine-phosphorylation-regulated kinase 1B (Homo sapiens, UniProt Q9Y463). Briefly: Navigating the Kinome. Panel member name: DYRK1B. Format: functional.
In another experiment the target is T1, Activin receptor type-1 (Homo sapiens, UniProt Q04771).
T1 sequence (Q04771 whole entry): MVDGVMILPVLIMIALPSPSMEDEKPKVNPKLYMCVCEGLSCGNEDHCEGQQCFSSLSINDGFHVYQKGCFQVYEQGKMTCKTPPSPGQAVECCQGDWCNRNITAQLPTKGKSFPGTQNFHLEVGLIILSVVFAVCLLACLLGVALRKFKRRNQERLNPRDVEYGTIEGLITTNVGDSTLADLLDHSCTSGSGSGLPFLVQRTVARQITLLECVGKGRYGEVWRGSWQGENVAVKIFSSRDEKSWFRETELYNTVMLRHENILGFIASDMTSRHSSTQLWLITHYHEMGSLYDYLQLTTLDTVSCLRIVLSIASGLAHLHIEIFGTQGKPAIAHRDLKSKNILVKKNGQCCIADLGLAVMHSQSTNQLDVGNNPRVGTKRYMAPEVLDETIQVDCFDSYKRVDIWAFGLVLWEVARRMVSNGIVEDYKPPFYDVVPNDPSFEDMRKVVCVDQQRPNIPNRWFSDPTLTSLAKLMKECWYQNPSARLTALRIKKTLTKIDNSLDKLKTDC
Briefly: Navigating the Kinome. Panel member name: ACVR1. Type of experiment: functional.

Another experiment has as its target Aurora kinase B (Homo sapiens, UniProt Q96GD4). Type of experiment: functional.
The target in experiment [9] is Mitogen-activated protein kinase kinase kinase kinase 4 (Homo sapiens, UniProt O95819). Format: functional.
In experiment [10] the target is Cyclin-dependent kinase 5 (Homo sapiens, UniProt Q00535). Format: functional.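 Note: CDK5 measured as one member of a kinase profiling panel.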
The target of experiment [11] is Leukocyte tyrosine kinase receptor (Homo sapiens, UniProt P29376). Kind of experiment: Navigating the Kinome. Panel member name: LTK. Type of experiment: functional.
Experiment [12] addresses Mitogen-activated protein kinase 13 (Homo sapiens, UniProt O15264). Format: functional.
Experiment [13] is described as follows: THP-1 cell cytotoxicity, cytotoxicity control, set 4 (AID 504911). Conditions: Mycobacterium tuberculosis. Type of experiment: functional.
Experiment [14] can be described thus: Vero cell cytotoxicity, dose response, cytotoxicity control for M. tuberculosis growth inhibitor project, Vero cells, purified and synthesized compounds, set 4 (AID 504854). Type of experiment: functional. Conditions: Mycobacterium tuberculosis.
Experiment [15] can be described thus: Vero cell cytotoxicity, dose response, cytotoxicity control for M. tuberculosis growth inhibitor project, Vero cells, purified and synthesized compounds, set 5 (AID 504909). Format: functional. Conditions: Mycobacterium tuberculosis.
The nature of experiment [16]: THP-1 cell cytotoxicity, dose response, cytotoxicity control, set 3 (AID 504852). Type of experiment: functional. Conditions: Mycobacterium tuberculosis.
The nature of experiment [17]: Vero cell cytotoxicity, cytotoxicity control for M. tuberculosis inhibitor project, purified and synthesized samples, set 3 (AID 504684). Format: functional. Conditions: […].
The target of a further experiment is Melanocortin receptor 4 (Homo sapiens, UniProt P32245). Briefly: MC4R antagonist potency on cAMP, dose response, cell-based, TR-FRET, biased antagonists (AID 602298).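 Note: antagonist potency against agonist-stimulated cAMP production.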 Type of experiment: functional.
Experiment [18] has as its target T2, Heat shock factor protein 1 (Mus musculus, UniProt P38532).
T2 sequence (P38532 whole entry): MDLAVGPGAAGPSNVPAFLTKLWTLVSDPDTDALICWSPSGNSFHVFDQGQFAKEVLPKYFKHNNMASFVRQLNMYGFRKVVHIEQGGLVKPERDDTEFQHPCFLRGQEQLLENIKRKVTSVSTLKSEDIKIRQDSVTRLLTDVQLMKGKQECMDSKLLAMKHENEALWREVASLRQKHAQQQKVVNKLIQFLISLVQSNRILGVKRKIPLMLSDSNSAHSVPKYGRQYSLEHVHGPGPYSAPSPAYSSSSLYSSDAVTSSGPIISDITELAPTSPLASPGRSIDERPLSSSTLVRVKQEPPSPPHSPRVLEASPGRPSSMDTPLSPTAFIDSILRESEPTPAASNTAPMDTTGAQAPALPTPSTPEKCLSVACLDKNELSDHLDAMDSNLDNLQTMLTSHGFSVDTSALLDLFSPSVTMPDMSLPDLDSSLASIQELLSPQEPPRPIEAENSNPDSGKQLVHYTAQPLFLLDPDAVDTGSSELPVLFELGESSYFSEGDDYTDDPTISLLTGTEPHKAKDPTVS
Briefly: HSF1 potentiators in luciferase reporter cells, confirmation, cell-based, NIH3T3, luminescence, dose retest (AID 435004).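 Note: stress induced by proteasome inhibitor MG132 added 30 min after compound; luciferase reporter driven by HSF1 response element in NIH3T3 cells; actives raise luminescence as potentiators of the MG132 stress response.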 Type of experiment: functional.

The next experiment can be described thus: cells. Format: functional.
Experiment [19] is described as follows: nonselective inhibitors of cellular cAMP signaling, dose response, counter-screen for MC4R biased antagonist project, cell-based, TR-FRET cAMP detection (AID 602305).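 Note: U2OS cells stimulated with forskolin near its EC80 as the cAMP inducer; potency is for inhibition of forskolin-stimulated cAMP signaling.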 Format: functional.
Experiment [20] addresses T3, Histone-lysine N-methyltransferase NSD2 (Homo sapiens, UniProt O96028).
T3 sequence (O96028 whole entry): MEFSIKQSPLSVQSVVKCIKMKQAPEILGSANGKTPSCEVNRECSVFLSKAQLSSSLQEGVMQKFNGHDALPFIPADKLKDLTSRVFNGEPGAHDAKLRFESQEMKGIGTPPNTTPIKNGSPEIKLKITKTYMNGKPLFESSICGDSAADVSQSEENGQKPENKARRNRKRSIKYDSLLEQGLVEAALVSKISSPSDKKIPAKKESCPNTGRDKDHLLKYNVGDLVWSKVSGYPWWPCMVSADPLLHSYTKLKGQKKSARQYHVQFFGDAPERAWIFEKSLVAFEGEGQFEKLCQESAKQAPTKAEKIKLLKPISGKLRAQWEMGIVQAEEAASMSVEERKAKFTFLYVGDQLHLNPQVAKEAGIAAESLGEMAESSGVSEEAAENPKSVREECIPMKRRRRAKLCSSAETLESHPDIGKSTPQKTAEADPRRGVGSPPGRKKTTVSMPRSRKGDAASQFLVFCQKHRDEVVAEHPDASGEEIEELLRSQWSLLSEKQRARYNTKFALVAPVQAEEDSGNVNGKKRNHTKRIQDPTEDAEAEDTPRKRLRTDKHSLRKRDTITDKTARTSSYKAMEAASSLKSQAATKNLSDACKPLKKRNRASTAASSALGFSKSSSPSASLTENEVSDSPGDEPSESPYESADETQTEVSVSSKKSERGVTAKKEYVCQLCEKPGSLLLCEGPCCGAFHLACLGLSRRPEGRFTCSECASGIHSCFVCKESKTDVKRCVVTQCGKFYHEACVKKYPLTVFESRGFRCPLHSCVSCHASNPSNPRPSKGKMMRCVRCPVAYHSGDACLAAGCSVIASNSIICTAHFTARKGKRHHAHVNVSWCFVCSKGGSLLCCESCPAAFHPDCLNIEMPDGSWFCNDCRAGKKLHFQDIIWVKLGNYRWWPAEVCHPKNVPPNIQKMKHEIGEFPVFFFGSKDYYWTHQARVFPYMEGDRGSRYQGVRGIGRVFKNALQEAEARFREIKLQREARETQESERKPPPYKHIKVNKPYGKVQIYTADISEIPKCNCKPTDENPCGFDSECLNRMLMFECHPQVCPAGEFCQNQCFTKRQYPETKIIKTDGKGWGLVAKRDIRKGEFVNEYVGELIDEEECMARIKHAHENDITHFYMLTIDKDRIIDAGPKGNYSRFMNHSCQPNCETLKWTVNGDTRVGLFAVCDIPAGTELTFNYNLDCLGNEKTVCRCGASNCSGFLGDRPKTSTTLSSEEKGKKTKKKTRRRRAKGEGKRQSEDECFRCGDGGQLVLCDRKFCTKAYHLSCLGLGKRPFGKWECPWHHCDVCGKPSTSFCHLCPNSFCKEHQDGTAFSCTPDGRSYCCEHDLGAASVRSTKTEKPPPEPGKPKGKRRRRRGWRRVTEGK
Format: biochemical.

In experiment [21] the target is Dual specificity tyrosine-phosphorylation-regulated kinase 1A (Homo sapiens, UniProt Q13627). Format: functional.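 Note: measured against DYRK1A as one member of a broad kinome profiling panel.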
For the next experiment, the target named is Focal adhesion kinase 1 (Homo sapiens, UniProt Q05397). Type of experiment: functional.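 Note: measured as one member of a kinome panel.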
Experiment [22] concerns the target Proto-oncogene tyrosine-protein kinase receptor Ret (Homo sapiens, UniProt P07949). Type of experiment: functional.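 Note: measured within a kinome-wide profiling panel, RET as the panel member.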
In experiment [23] the target is Death-associated protein kinase 3 (Homo sapiens, UniProt O43293). Type of experiment: functional.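 Note: measured as one member of a kinome-wide profiling panel.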
The target in experiment [24] is Serine/threonine-protein kinase Chk1 (Homo sapiens, UniProt O14757). Type of experiment: functional.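 Note: measured as one member of a kinome-wide kinase profiling panel.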
The target of experiment [25] is Tyrosine-protein kinase receptor TYRO3 (Homo sapiens, UniProt Q06418). Format: functional.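 Note: TYRO3 value obtained as one member of a kinome-wide profiling panel.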
Experiment [26] addresses 5'-AMP-activated protein kinase catalytic subunit alpha-1 (Homo sapiens, UniProt Q13131). Format: functional.
Experiment [27] has as its target Leucine-rich repeat serine/threonine-protein kinase 2 (Homo sapiens, UniProt Q5S007). Type of experiment: functional.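 Note: value from a broad kinome-wide panel profiling study in which LRRK2 was one of the kinases tested.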
Experiment [28] has as its target cAMP-dependent protein kinase catalytic subunit PRKX (Homo sapiens, UniProt P51817). Format: functional.
Experiment [29] addresses Cyclin-dependent kinase 8 (Homo sapiens, UniProt P49336). Kind of experiment: Navigating the Kinome. Panel member name: CDK8. Format: functional.
In experiment [30] the target is Serine/threonine-protein kinase pim-1 (Homo sapiens, UniProt P11309). Format: functional.

LIM domain kinase 1, sequence (P53667 whole entry, the tested form may be a part): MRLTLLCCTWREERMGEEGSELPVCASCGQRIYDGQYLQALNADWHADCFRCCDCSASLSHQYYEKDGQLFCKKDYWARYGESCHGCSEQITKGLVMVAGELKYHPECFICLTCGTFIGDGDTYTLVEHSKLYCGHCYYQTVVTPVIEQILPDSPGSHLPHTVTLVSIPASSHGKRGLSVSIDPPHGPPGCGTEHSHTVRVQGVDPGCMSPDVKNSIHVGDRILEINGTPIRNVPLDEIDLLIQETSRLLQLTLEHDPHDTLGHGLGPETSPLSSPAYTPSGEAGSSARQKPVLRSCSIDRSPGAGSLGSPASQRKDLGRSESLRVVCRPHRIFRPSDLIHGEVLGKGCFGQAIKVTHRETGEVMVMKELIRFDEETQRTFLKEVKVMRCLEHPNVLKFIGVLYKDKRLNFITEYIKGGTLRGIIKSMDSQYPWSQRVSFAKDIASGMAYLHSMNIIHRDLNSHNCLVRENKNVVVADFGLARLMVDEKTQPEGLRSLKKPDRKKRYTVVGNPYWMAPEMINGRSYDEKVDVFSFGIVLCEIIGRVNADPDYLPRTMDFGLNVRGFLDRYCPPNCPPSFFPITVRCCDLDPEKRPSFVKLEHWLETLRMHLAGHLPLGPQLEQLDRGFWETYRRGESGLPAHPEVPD
Dual specificity protein kinase CLK4, sequence (Q9HAZ1 whole entry): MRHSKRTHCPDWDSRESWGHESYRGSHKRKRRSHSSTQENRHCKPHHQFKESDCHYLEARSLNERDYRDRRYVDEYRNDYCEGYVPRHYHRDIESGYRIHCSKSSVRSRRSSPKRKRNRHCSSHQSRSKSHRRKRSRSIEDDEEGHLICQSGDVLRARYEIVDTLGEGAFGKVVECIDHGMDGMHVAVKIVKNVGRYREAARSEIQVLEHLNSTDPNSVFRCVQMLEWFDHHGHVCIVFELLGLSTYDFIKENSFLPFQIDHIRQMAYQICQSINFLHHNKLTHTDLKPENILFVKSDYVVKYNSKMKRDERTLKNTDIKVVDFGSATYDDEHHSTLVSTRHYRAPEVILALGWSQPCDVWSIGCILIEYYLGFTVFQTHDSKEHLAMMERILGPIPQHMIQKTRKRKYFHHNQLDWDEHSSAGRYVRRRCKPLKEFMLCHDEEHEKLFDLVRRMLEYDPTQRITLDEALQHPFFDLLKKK
Dual specificity tyrosine-phosphorylation-regulated kinase 1B, sequence (Q9Y463 whole entry): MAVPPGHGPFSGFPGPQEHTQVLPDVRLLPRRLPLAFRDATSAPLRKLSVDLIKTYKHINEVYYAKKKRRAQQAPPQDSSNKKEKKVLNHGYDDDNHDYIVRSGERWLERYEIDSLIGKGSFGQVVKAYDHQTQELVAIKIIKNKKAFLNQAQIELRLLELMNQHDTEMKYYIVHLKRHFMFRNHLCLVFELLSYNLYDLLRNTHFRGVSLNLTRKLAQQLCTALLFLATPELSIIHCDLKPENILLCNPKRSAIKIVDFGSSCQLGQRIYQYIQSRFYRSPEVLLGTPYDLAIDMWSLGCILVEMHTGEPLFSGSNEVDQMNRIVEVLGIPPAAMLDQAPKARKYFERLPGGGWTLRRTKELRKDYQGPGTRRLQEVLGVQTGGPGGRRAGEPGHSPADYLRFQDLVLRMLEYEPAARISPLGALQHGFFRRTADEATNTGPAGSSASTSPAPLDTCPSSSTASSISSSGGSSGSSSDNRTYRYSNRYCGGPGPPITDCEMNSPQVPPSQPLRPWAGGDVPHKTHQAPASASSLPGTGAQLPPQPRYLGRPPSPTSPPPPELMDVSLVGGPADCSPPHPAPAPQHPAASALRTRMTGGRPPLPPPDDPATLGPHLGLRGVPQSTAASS
Leukocyte tyrosine kinase receptor, sequence (P29376 whole entry): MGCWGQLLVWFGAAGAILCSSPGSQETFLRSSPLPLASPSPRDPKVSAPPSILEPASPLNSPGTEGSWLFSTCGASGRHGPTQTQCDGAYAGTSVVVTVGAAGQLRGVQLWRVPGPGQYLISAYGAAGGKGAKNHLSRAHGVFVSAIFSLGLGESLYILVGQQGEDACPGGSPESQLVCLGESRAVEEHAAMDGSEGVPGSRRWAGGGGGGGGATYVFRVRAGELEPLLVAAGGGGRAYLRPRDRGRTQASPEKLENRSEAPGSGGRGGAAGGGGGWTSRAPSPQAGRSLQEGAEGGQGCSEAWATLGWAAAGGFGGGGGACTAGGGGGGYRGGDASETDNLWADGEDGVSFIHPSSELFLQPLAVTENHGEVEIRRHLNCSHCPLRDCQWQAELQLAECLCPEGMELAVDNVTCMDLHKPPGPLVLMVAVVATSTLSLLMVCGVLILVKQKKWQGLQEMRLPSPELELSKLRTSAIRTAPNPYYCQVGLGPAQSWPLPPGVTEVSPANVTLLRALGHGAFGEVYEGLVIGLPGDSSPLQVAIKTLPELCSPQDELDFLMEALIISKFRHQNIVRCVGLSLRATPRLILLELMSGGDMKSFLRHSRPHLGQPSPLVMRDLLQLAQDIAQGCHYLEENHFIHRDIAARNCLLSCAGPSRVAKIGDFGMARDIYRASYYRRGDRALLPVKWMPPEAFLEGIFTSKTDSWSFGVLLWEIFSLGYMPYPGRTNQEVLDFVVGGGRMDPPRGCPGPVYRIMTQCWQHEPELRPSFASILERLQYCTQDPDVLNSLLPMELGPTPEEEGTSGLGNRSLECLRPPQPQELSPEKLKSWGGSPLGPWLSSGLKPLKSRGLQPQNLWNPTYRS
Casein kinase I isoform alpha, sequence (P48729 whole entry, canonical isoform): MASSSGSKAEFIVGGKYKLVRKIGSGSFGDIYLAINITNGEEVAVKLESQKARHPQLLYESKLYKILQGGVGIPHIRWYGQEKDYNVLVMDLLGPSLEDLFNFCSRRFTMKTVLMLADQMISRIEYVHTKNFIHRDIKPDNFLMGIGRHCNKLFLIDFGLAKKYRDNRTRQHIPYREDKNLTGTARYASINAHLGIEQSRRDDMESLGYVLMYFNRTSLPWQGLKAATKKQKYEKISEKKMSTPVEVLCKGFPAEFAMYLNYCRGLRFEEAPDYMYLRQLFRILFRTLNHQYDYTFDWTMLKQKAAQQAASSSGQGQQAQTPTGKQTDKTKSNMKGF
Cyclin-dependent kinase 5, sequence (Q00535 whole entry): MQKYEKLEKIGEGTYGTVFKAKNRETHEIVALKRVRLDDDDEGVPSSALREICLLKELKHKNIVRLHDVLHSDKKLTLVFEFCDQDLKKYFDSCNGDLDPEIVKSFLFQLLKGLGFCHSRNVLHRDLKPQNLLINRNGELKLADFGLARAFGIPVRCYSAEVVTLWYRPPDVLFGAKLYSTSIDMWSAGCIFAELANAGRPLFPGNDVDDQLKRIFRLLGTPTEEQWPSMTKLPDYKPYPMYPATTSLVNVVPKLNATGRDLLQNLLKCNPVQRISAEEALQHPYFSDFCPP
Mitogen-activated protein kinase 13, sequence (O15264 whole entry): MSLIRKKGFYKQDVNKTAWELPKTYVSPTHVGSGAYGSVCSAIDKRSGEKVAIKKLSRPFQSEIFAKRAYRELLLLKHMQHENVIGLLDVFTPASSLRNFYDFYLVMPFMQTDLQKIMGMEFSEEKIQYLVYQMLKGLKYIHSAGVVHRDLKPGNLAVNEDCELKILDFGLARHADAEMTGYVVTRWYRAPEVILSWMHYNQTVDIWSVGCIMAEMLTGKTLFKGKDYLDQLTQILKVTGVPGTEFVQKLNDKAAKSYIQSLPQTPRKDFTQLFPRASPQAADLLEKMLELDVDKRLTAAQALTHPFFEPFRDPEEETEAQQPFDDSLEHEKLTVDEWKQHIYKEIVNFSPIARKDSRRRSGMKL
Proto-oncogene tyrosine-protein kinase receptor Ret, sequence (P07949 whole entry): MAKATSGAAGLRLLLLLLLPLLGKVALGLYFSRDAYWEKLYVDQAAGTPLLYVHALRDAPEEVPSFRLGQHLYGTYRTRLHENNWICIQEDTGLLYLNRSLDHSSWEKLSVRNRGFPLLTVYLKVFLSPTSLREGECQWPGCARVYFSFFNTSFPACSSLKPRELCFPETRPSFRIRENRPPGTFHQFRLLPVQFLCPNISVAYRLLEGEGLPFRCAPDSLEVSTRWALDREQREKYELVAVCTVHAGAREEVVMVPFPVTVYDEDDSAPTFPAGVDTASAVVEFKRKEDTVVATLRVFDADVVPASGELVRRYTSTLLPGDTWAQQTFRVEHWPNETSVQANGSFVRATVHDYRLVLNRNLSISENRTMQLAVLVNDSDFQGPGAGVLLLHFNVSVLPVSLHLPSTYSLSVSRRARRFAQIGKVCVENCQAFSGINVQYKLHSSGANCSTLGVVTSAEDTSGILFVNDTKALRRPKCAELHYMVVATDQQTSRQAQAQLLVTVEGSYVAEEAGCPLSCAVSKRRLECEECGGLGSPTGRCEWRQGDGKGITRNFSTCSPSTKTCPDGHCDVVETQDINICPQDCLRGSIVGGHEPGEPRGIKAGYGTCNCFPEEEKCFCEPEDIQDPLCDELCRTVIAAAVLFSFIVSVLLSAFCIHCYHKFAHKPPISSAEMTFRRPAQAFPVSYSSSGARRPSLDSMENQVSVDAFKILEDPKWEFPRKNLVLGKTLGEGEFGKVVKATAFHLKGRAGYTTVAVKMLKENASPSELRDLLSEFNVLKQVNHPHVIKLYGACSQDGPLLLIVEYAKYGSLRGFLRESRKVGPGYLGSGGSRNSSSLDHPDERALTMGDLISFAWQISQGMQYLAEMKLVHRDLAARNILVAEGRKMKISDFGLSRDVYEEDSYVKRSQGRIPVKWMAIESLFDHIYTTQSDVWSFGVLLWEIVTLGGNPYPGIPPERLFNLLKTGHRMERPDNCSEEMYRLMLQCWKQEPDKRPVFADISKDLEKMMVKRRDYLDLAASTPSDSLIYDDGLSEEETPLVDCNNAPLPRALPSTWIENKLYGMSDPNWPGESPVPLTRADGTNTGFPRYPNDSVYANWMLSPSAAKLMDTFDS

On to `Nc1n[nH]c2c(-c3ccccc3)cccc12`, for which the Ki in experiment [1] is 39.8 µM (active); in [2], 63.1 µM (active); in [3], 15.8 µM (active); in experiment [4], 50.1 µM (active); in [5], 79.4 µM (active); on Activated CDC42 kinase 1, 79.4 µM (active). In addition, the Ki was 79.4 µM (active) in experiment [6]; 50.1 µM (active) in experiment [7]; 63.1 µM (active) at LIM domain kinase 1; 50.1 µM (active) in experiment [8]; 79.4 µM (active) on Activin receptor type-1; 79.4 µM (active) on Aurora kinase B. For the same compound, the figures for the Ki in [9], in [10] and in experiment [11] were 25.1 µM (active), 50.1 µM (active) and 50.1 µM (active), respectively.

Consider `O=S(=O)(NCCNCC=Cc1ccc(Br)cc1)c1cccc2cnccc12`, for which the Ki in experiment [12] is > 7.94 µM (inactive).

Regarding `CCSc1nc(=O)c2ccccc2[nH]1`, the CC50 in experiment [13], in experiment [14], in [15], in [16] and in [17] was > 100 µM (active) in each case.

Turning to `CC(C)Cn1c(N)c(C(=O)COC(=O)c2ccc([N+](=O)[O-])o2)c(=O)n(C)c1=O`, the IC50 at Melanocortin receptor 4 was > 64.6 µM (inactive); in the experiment “cells” it was 1.57 µM (active); in experiment [19] it was > 64.6 µM (inactive). Also, the EC50 in experiment [18] was 18.5 µM (active). Besides, the AC50 in [20] is > 20 µM (inactive).

With `O=C1NS(=O)(=O)c2ccc(Cl)cc21`, the Ki in [21] was 20 µM (active); in [1] it was 100 µM (active); at Focal adhesion kinase 1, 79.4 µM (active); in experiment [22], 100 µM (active); in experiment [23], 31.6 µM (active); in experiment [24], 79.4 µM (active). The Ki in experiment [6] was 63.1 µM (active); in experiment [25], 20 µM (active); on LIM domain kinase 1, 25.1 µM (active); in [8], 20 µM (active); in experiment [26] it was 50.1 µM (active); on Activin receptor type-1, 79.4 µM (active). Also, the Ki is 50.1 µM (active) in experiment [27]; 50.1 µM (active) in experiment [10]; 31.6 µM (active) in experiment [11]; 63.1 µM (active) in [28]; 63.1 µM (active) in [29]; 79.4 µM (active) in experiment [30].
